Results as given in article PMC13500670, “The U1 snRNP protein U1C and Helix H of U1 snRNA are critical for small molecule splicing modulator function” (Nature Communications, 2026).

Assays:
[1] = system: cassette exon / GA/GU iExon inclusion, HEK293 cells, scr siRNA; experiment: RNA-seq splicing analysis, compound dose response, scrambled (mock) siRNA; format: cell-based, human
Source text: (§1) Skipped exons are highly enriched for noncanonical 5′ ss sequences (on either the intronic or exonic side), which account for 90% of skipped exons (Supplementary Fig. 8C). For example, among skipped exons with a canonical exonic 5′ ss sequence, 74% contain noncanonical intron sequence. These observations are consistent with the previous published role for U1C stabilization of the U1 snRNA-pre-mRNA duplex at the 5′ ss[25]–[28]. […] We will refer to these as class I exons for clarity in later discussion.
(§2) We next examined the effect of U1C knockdown on compound-mediated splicing. […] We next used the complete dose response to calculate the effective concentration at which deltaPSIcompound-DMSO is 30 (EC-dPSI30).
(§3) HEK293T cells were grown in DMEM media with 10% FBS. 500,000 cells in 1.75 mL of media were plated into a 6-well plate for approximately 6 h. Either siRNA negative control (ThermoFisher Silencer^TM Negative control #2, AM4613) or U1C siRNA (ThermoFisher Silencer^TM Select Pre-designed siRNA, S13225) were transfected for a final concentration of 25 nM using Invitrogen Lipofectamine RNAiMax (13778-150). In brief, 10 μL 5 μM siRNA was added to 115 μL of OptiMEM, while 5 μL Lipofectamine added to 120 μL OptiMEM for 5 minu before mixing the solutions and incubating for 20 min. 250 μL of Lipofectamine:siRNA solution was gentle added to the 1.75 mL cells. After 24 h post-transfection, cells were treated with 10 μL compound resuspended in DMSO. […] Each compound-treated experimental condition was treated and collected in duplicate, while four DMSO only treated samples per siRNA transfection were collected. RNA was isolated using KingFisher^TM Apex instrument and the MagMAX™ mirVana™ Total RNA Isolation Kit (A27828) by Thermo Fisher according to manufacturer’s protocol. Isolated RNA was submitted to Admera Health for library preparation (polyA selected, stranded) and mRNA-sequencing and >20 M 150 bp pair-end reads were returned.
RNAseq and splicing analysis were described earlier using DEDseq (https:// github.com/liwc01/DEDSeq[18]) with minor modifications. RNA sequencing reads were mapped to human genome (hg19) using STAR (version 2.7.10b); only uniquely mapped reads (with MAPQ > 10) with <5 nt/100 nt mismatches and properly paired reads were used. For splicing analysis, all junction reads (read with a gap in alignment indicating splicing) were used, including the ones mapped to unannotated splice sites. Reads were counted for different exons (for cassette exon [CE]) or exonic regions (for A5′ss or A3′ss). For each splicing event, a percent-spliced-in (PSI) value was calculated using the percent of average read number supporting the inclusion among all reads supporting either the inclusion or the exclusion. A minimum of 10 for the denominator of PSI calculation was required. Otherwise, a “NA” value would be generated. PSI values for biological replicates were averaged, and the PSI difference between the two treatment groups was calculated. For a statistical test, a 2 × 2 read counts table was made for each event, with rows for reads supporting inclusion or exclusion, and columns for the two comparing sample groups. Fisher’s exact test was used for the statistical tests. For biological replicates, each pair of the testing and control sample was analyzed by Fisher’s exact test and the geometric mean of all P-values was reported as a final P-value. PSI change (deltaPSI) of >10% (or < −10%) and P < 0.001 was used to select splicing events being regulated by the treatment. PSI calculation, Fisher’s exact test were performed using R (4.0.5). 5′ ss composition analysis was performed as described in ref. [25]. Potency of splicing modulator was determined by plotting dPSI and identifying the concentration at which the change in PSI reached 30% and reported as EC_dPSI30.

[2] = system: full length U1 snRNA + HTT 5' ss oligo with -1A deleted; experiment: FP: full-length U1 snRNA + HTT 5' ss oligo with -1A deleted (Supplementary Fig. 5E); format: binding, human
Protocol: (§4) To ensure the presence of a −1A bulge in the RNA duplex, we extended the U1 snRNA to nucleotide 1–16 and generated an artificial HTT 5′ ss oligo that added 4 additional nucleotides upstream of the −4C nucleotide to ensure stable base pairing upstream of the potential −1A bulge.
(§5) All of 5′-FAM labeled RNA oligos used in this study were synthesized and purified by IDT (USA). Fluorescence polarization (FP) assays were performed in binding buffer (20 mM HEPES pH 7.5, 1 mM MgCl2, 200 mM KCl, 0.01% TritonX-100, 0.1%PEG3350, 2%DMSO) at room temperature using a Envision HTS Plate Reader system (Revvity). […] The equilibrium dissociation constants (Kd) of binding reaction were calculated using the following single-site binding model formula in GraphPad Prism: y=START+(END−START)x/kD+x where x and y represent the concentration of U1 snRNP (or U1 snRNA) and the polarization value measured respectively, START represents the polarization value of protein-free nucleic acid probe, END represents the maximum polarization value when U1 snRNP (or U1 snRNA) binds to the fluorescently labeled 5′ ss oligo. […]

[3] = target: T1, native U1 snRNP + SMN2 5' ss oligo (Homo sapiens, UniProt P09234); experiment: FP: native U1 snRNP binding to SMN2 5' ss oligo with DMSO or compound; conditions: Fig. 1B; 10 μM branaplam
T1 construct: we added a large excess of full-length U1C (800 nM) expressed in and purified from E. coli; endogenous in cells; host or cells: HeLa-S3 with CRISPR knock-in of a C-terminal HTP tag on U1A; the added U1C came from E. coli
Protocol: (§6) We engineered a protein A-tag on U1A in HeLa cells using CRISPR-Cas9 and purified native U1 snRNP using the protein A tag and IgG resin (Supplementary Fig. 1A). […] Since U1C is weakly associated with U1 snRNP and may fall off at low U1 snRNP concentrations, we added a large excess of full-length U1C (800 nM) expressed in and purified from E. coli in all binding reactions unless otherwise stated.
(§7) U1A-HTP cells were adapted to grow in suspension in Joklik’s MEM (Sigma) supplemented with 5% (v/v) newborn calf serum and 1× Pluronic™ F-68 (Gibco). […]
as §5

[4] = system: cassette exon / GA/GU iExon inclusion, HEK293 cells, U1C KD; experiment: RNA-seq splicing analysis, compound dose response, U1C knockdown; format: cell-based, human
Source text: as §1, §2, §3
RNAseq and splicing analysis were described earlier using DEDseq (https:// github.com/liwc01/DEDSeq[18]) with minor modifications. RNA sequencing reads were mapped to human genome (hg19) using STAR (version 2.7.10b); only uniquely mapped reads (with MAPQ > 10) with <5 nt/100 nt mismatches and properly paired reads were used. For splicing analysis, all junction reads (read with a gap in alignment indicating splicing) were used, including the ones mapped to unannotated splice sites. Reads were counted for different exons (for cassette exon [CE]) or exonic regions (for A5′ss or A3′ss). For each splicing event, a percent-spliced-in (PSI) value was calculated using the percent of average read number supporting the inclusion among all reads supporting either the inclusion or the exclusion. A minimum of 10 for the denominator of PSI calculation was required. Otherwise, a “NA” value would be generated. PSI values for biological replicates were averaged, and the PSI difference between the two treatment groups was calculated. For a statistical test, a 2 × 2 read counts table was made for each event, with rows for reads supporting inclusion or exclusion, and columns for the two comparing sample groups. […] For biological replicates, each pair of the testing and control sample was analyzed by Fisher’s exact test and the geometric mean of all P-values was reported as a final P-value. […] Potency of splicing modulator was determined by plotting dPSI and identifying the concentration at which the change in PSI reached 30% and reported as EC_dPSI30.

[5] = system: splicing events in human SH-SY5Y cells; conditions: 24 nM (approximately 2 times the IC50 for HTT), 24 h; cited from earlier work
[6] = system: SMN2 exon 7 skipping, HEK293T cells; experiment: SMN2 splicing minigene reporter assay (luciferase); format: cell-based; conditions: Homo sapiens, HEK-293T, Fig. 3A, 36 h, 0.012 to 9 µM
Protocol: Exon 7 inclusion places the GLuc gene out of frame, thereby reducing luciferase activity. […] Transfection was performed in 10 cm dishes using Lipofectamine 2000 (Thermo, #11668019) according to the manufacturer’s protocol. […] Compounds were dispensed in duplicate across a 1:3 serial dilution series ranging from 0.012 to 9 µM. Following a 36 h incubation at 37 °C, luciferase activity was assessed by adding 12 µL of a custom luciferase reagent to each well. The luciferase reagent (12 mL total volume) consisted of 60 µL 50× coelenterazine substrate (Nanolight, #320), 3 mL Nanolight GLuc buffer, 30 µL 10% Triton X-100 (Thermo, #A16046.AP), and 8.9 mL deionized water. Plates were shaken at 600 rpm for 6 min, and luminescence was measured using a Cytation 5 multimode plate reader (BioTek). Half-maximal effective concentration (EC50) values were calculated using GraphPad Prism (v10.4) with four-parameter nonlinear regression curve fitting.

[7] = system: 5' end of U1 snRNA + HTT 5' ss oligo with -1A deleted; experiment: FP: 5' end of U1 snRNA + HTT 5' ss oligo with -1A deleted (Supplementary Fig. 5D); format: binding, human
Protocol: as §4, §5

[8] = system: c12orf4 iExon 1a, DENND4A, SCO1, DPH1 iExon inclusion; experiment: End-point RT-PCR of iExon inclusion, scr control versus U1C KD; format: cell-based, human; conditions: c12orf4 iExon 1a and DENND4A; 3uM, 1uM, 250nm, 100nM
Protocol: A total of 500,000 SH-SY5Y cells were plated in 6-well tissue culture plates. After 4 h of recovery, cells were transfected with final 100 nM siRNA (silencer select s13212 or negative control No.2 from Ambion) using Lipofectamin RNAi Max (ThermoFisher) according to the manufacturer’s protocol. After 24 h incubation, cells were treated with splicing modulating compounds for additional 24 h. Cells were lysed in RLT buffer ( + beta-mercaptoethanol) and RNA was extracted using the RNeasy kit (Qiagen) according to the manufacturer’s protocol.
Knockdown was confirmed by RT-qPCR using TaqMan assays (Hs00863364_gH, Hs02758991_g1, from ThermoFisher). Splicing changes were confirmed by endpoint PCR using the primer sets listed in Supplementary Table 1. Relative amounts of U1C RNA were calculated for control knockdown vs. U1C knockdown (normalized to GAPDH expression level).
HEK293 cells were transfected for siRNA in 6-well plates, similarly as for RNA-sequencing above. […] Overexpression of 1.5 μg pMEV-2HA-EV or pMEV-U1C-2HA was carried out with Lipofectamine3000 (L3000008) 6 h later. RNA was harvested 24 h later, extracted as above, and reverse transcribed with a Qiagen QuantiTect RT kit (205311). […]

[9] = system: SMN2 pre-mRNA + native or reconstituted U1 snRNP; experiment: Pull-down of native or reconstituted U1 snRNP by immobilized SMN2 pre-mRNA; format: binding, human; conditions: Fig. 1F; 50 μM Branaplam vs 0.5% DMSO
Source text: In this assay, we immobilized Minx (as a positive control with a canonical 5′ ss) or SMN2 pre-mRNA containing the weak 5′ ss of exon 7 on amylose resin, pulled down either native or reconstituted U1 snRNP, and analyzed the RNAs in the pulldown samples as a surrogate of the amount of U1 snRNP bound to the pre-mRNA.
The SMN2 pre-mRNA fragment used in pull down experiment contains 100 nt up and downstream of the 5′ ss of SMN2 intron 7 followed by three copies of MS2 tag. It was cloned downstream of a T7 promoter in the Sp72 vector. The SMN2 pre-mRNA was in vitro transcribed and purified by 7 M Urea denaturing gel.
The complex was then incubated with amylose resin and washed with the same buffer. The resins were treated in 5 μl buffer containing 1 mg/ml proteinase K at 37 °C for 30 min to release the RNAs. The resulting samples were run on 6% denaturing polyacrylamide gel and stained with Sybr Gold to visualize the RNAs.

[10] = system: U1 snRNA nucleotide 1-16 + artificial HTT 5' ss oligo; experiment: FP: U1 snRNA nucleotide 1-16 + artificial HTT 5' ss oligo with -1A bulge (Supplementary Fig. 5F); format: binding, human
Protocol: as §4, §5

[11] = target: T2, native U1 snRNP + HTT 5' ss oligo (Homo sapiens, UniProt P09234); experiment: FP: native U1 snRNP binding to HTT 5' ss oligo; conditions: Fig. 1C; 10 μM branaplam
T2 construct: we added a large excess of full-length U1C (800 nM) expressed in and purified from E. coli; endogenous in cells; host or cells: HeLa-S3 with CRISPR knock-in of a C-terminal HTP tag on U1A; the added U1C came from E. coli
Protocol: as §6, §7, §5

Q: Which “PSI of CMSS1 iExon” value ([1]; 5nM branaplam) does the source give for CC1(C)CC(Oc2ccc(-c3ccc(-c4cn[nH]c4)cc3O)nn2)CC(C)(C)N1 [Branaplam, branaplam] here?
A: The value was 6.

Q: What about the “PSI of WNK4 iExon” value ([1]; 5nM branaplam) of the same compound?
A: The value was 6.7.

Q: And the “PSI of PDXDC1 iExon” value ([1]; 5nM, mock, DMSO baseline […])?
A: The value was 2.9 PSI.

Q: And the “geomean pEC_dPSI30 for all GA/GU iExons” value ([1]; Fig. 8C, mock knockdown, -log10 of compound concentration when dPSI achieves 30%)?
A: The value was 6.61.

Q: What about the “number of exons with GA/GU 5' ss significantly induced with deltaPSI compound-DMSO >10” value ([1]; highest concentration of branaplam) of the same compound?
A: Its value is “approximately 1200”.

Q: And the “saturation PSI of PDXDC1 iExon” value ([1]; highest dose, mock and U1C KD reach similar saturation)?
A: The value was roughly 50.

Q: And the “effect of compound on binding” value [2]?
A: Its value is “not improved”.

Q: What about the “increase of binding affinity by compound versus DMSO” value [3] of the same compound?
A: Its value is “about twofold”.

Q: And the “PSI of PDXDC1 iExon” value ([4]; 5nM, U1C KD, DMSO baseline […])?
A: The value was 2.6 PSI.

Q: And the “U1CKD Log10 effect” value ([4]; Fig. 8C picture, pEC-dPSI30 mock versus U1C KD)?
A: Its value is -0.51.

Q: And the “geomean pEC_dPSI30 for all GA/GU iExons” value ([4]; Fig. 8C, U1C KD)?
A: Its value is 6.10.

Q: And the “number of splicing events affected” value [5]?
A: The value was 165.

Q: What about the EC50 [6] of the same compound?
A: The EC50 was 0.0596 µM.

Q: And the “effect of compound on binding” value [7]?
A: The value was “not improved”.

Q: What about the “effect of U1C knockdown on compound potency by end-point PCR” value [8] of the same compound?
A: The value was “reduces”.

Q: And the “amount of native or reconstituted U1 snRNP pulled down by SMN2 pre-mRNA” value [9]?
A: The value was “significantly increased”.

Q: What about the “effect of compound on binding affinity” value [10] of the same compound?
A: The value was “no effect”.

Q: What about the “increase of binding affinity by compound versus DMSO” value [11] of the same compound?
A: The value was “about twofold”.
